Here are results for 6 compounds from PMC10075506, “Synthesis and biological evaluation of flavonoid-based IP6K2 inhibitors” (Journal of Enzyme Inhibition and Medicinal Chemistry, 2023).

One data set deals with T1, recombinant human IP6K2 (Homo sapiens, UniProt Q9UHH9).
T1 construct: made in house; host or cells: Sf9 insect cells (baculovirus, pFASTBAC1)
T1 sequence (Q9UHH9 1-426): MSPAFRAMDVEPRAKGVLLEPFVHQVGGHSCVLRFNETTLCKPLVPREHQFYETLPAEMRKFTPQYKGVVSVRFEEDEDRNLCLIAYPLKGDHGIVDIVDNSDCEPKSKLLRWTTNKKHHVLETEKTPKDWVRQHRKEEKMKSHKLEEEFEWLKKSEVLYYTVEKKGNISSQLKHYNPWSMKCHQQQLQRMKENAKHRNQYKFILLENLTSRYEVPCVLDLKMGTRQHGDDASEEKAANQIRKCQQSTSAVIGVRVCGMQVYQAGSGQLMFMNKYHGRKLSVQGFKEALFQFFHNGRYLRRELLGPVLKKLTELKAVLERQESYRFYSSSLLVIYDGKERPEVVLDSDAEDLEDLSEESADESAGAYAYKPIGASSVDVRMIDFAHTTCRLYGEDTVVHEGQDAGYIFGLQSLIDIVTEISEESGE
In words: ADP-Glo kinase assay, IP6K2. Type of data set: biochemical. How it is done:
(§1) Inhibition activity of the synthesised compounds against IP6K2 was assessed using ADP-Glo™ Kinase Assay (Promega). Kinase reaction mixtures were first shaking-incubated with individual drugs (diluted in DMSO) for pre-incubation at RT for 15 min, and then ATP was added (final 10 µM) to initiate the reaction. 20 ng of recombinant human IP6K2 protein was used per 15 µL of IP6K2 reaction mixture (50 mM Tris-HCl, pH 6.8, 10 mM MgCl2, 2.5 mM DTT, 0.02% Triton X-100, 10 µM IP6). […] Each detection set was prepared on 96-well (25 µL kinase reaction) as duplicates. Resulting enzyme activity was calculated as following; Activity (%) = ([ADPexperimental]/[ADPDMSO])×100. For IC50 estimation of compounds, kinase assay was prepared on 384-well plates (20 ng of recombinant human IP6K2 protein was used per 5 µL kinase reaction mixture) as duplicates. The final concentrations for IP6K2, IP6, and ATP were 80 nM, 10 μM, and 10 μM, respectively. […] IP6K1 and IP6K3 assays were performed by Liao et al.’s conditions.[25] The final concentrations for IP6K1, IP6, and ATP were 60 nM, 100 μM, and 1 mM, respectively. […] All statistical analyses including IC50 estimation was performed using Prism 7 or Prism 9 (Graphpad Software).
(§2) Full-length human IP6K1, IP6K2, or IP6K3 cDNA was subcloned into pFASTBAC1 plasmid (Gibco) with an N-terminal FLAG epitope sequence, and baculovirus was generated according to the manufacturer’s instructions. Sf9 insect cells were infected with baculovirus and incubated for 72 h. The cells were resuspended in lysis buffer [20 mM Tris–HCl (pH 7.9), 500 mM NaCl, 4 mM MgCl2, 0.4 mM EDTA, 2 mM DTT, 20% glycerol, 1 mM PMSF, and protease inhibitor cocktail (Roche)] and then disrupted with a Dounce homogeniser (pestle A, 3 series of 10 strokes with 10 min interval).

In another data set the target is T2, human IP6K3 (Homo sapiens, UniProt Q96PC2).
T2 construct: made in house; host or cells: Sf9 insect cells (baculovirus, pFASTBAC1)
In words: ADP-Glo kinase assay, IP6K3 (Liao et al.'s conditions). The following applies: for IC50: IP6K3 120 nM, ATP 1 mM. Type of data set: biochemical. Here is the method:
as §1, §2

A further data set is described as follows: in vitro. To be noted: PAMPA. An excerpt:
Supporting Information Table 1.
artificial membrane permeability assay (PAMPA) as described previously (reference). The apparent permeability
(ranitidine, nadolol, hydrochlorothiazide).
Data are mean ± S.D. (n=3).
Reference: Oh, M.H., Lee, H.J., Jo, S.H., et al. Development of Cassette PAMPA for Permeability Screening. Biol Pharm

The next data set addresses T3, human IP6K1 (Homo sapiens, UniProt Q92551).
T3 construct: made in house; host or cells: Sf9 insect cells (baculovirus, pFASTBAC1)
In words: ADP-Glo kinase assay, IP6K1 (Liao et al.'s conditions). Type of data set: biochemical. The following applies: for IC50: IP6K1 60 nM, ATP 1 mM. How it is done:
as §1, §2

In data set [1] the test system is IP7 synthesis in human colorectal cell line (HCT116). The data set can be described thus: cellular IP7 synthesis in HCT116, HPLC of [3H]inositol-labelled inositol phosphates. Type of data set: cell-based. To be noted: HCT116, compound 10 μM for 6 h.
Method: For HPLC analysis, 2 × 10^5 cells/60 mm dish of HCT116 were treated with 60 μCi [^3H] myo-inositol (NET1177001MC, PerkinElmer). After 3 days, soluble inositol polyphosphates from HCT116 (human colorectal cancer cell line) were extracted and analysed as previously described.[39] Intracellular inositol phosphates were extracted with acid extraction buffer (1M HClO4, 3 mM EDTA, and 0.1 mg/mL IP6), and neutralised with neutralisation buffer (1M K2CO3 and 3 mM EDTA). The lysates were centrifuged for 10 min, and the soluble fraction was resolved by HPLC as described earlier.[39] The lipid pellet was lysed with 0.1% Triton X-100 in NaOH overnight. […] Quantity of inositol phosphates was presented as total counts/min (CPM) normalised by total lipid contents.
The test system of another data set is hIP6K2. The following applies: read-out: IC50 value of quercetin (IP6K2), reported; different IP6K2 enzyme concentration and reaction temperature; cited from earlier work.
Where [2] appears, read: final concentration of ATP and IP6 adjusted to 10 μM.

T2 sequence (Q96PC2 whole entry): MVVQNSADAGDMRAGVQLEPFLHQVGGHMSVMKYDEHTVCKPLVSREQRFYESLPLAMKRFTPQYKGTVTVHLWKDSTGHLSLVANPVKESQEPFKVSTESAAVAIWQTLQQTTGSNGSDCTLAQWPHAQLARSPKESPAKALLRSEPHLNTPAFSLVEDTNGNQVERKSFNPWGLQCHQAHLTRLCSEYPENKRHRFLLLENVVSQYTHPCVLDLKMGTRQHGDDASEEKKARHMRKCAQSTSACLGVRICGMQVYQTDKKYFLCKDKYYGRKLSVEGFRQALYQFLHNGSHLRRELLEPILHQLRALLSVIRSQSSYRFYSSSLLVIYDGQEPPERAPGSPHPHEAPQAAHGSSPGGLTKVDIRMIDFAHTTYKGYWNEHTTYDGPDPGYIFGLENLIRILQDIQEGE
T3 sequence (Q92551 whole entry): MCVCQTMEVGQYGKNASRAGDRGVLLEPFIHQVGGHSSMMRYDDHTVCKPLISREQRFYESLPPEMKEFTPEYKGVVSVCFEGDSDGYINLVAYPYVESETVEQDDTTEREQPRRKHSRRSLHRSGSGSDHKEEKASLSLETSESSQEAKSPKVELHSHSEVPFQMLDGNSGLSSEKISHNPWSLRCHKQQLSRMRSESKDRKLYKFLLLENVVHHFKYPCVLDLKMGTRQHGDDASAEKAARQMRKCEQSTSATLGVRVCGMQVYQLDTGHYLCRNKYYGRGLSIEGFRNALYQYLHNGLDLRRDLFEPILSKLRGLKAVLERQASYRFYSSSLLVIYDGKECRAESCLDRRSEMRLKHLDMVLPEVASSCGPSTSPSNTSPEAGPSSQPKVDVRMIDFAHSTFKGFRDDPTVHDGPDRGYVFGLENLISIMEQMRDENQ

For `O=C(O)c1cccc(-c2oc3cc(O)c(O)cc3c(=O)c2O)c1` [Compound 20s, 3–(3,6,7-Trihydroxy-4-oxo-4H-chromen-2-yl)benzoic acid], the IC50 turned out to be 550 ± 1 nM at recombinant human IP6K2, 3560 nM against human IP6K3 (IP6 100 µM) and 2870 nM on human IP6K1 (IP6 100 µM). Further, the “fold more potent IP6K2 inhibition than quercetin” value at recombinant human IP6K2 (IC50 compared with quercetin) is 5 fold. In addition, the “fold more potent than compound 20r (IP6K2)” value on recombinant human IP6K2 (meta -COOH versus para -COOH) was “approximately 7 fold”. The “IP6K3 /IP6K2 (IC50 ratio)” value at human IP6K3 (IP6K3 at ATP 1 mM, IP6 100 µM, IP6K2 at ATP 10 µM, IP6 10 µM) came to 6.47. On human IP6K3 (setting [2]), the “IC50 ratio of IP6K3/IP6K2” value is on record as 2.32 fold. Besides, the Papp in “in vitro” is < 0.18 ×10⁻⁶ cm/s. Further, the Permeability class result in the data set “in vitro” is reported as “Low”. For the same compound, at human IP6K1 (IP6K1 at ATP 1 mM, IP6 100 µM, IP6K2 at ATP 10 µM, IP6 10 µM), the “IP6K1 /IP6K2 (IC50 ratio)” value is reported as 5.22. The “IC50 ratio of IP6K1/IP6K2” value on human IP6K1 (setting [2]) came to 4.65 fold. Besides, the “cellular IP7 levels” value in data set [1] is “failed to reduce cellular IP7 levels”.

For `NS(=O)(=O)c1cc2c(cc1Cl)NCNS2(=O)=O` [Hydrochlorothiazide, hydrochlorothiazide], in “in vitro”, the Papp was < 0.18 ×10⁻⁶ cm/s and the Permeability class entry is recorded as “Low”.

As to `COCCc1ccc(OCC(O)CNC(C)C)cc1` (stereo not shown) [Metoprolol, metoprolol], in the data set “in vitro”, the Papp came out at 3.45 ± 0.158 ×10⁻⁶ cm/s and the Permeability class result is listed as “High”.

Turning to `CC(C)(C)NCC(O)COc1cccc2c1CC(O)C(O)C2` (stereo not shown) [Nadolol, nadolol], in “in vitro”, the Papp stood at 0.089 ± 0.007 ×10⁻⁶ cm/s and the Permeability class result is reported as “Low”.

As for `O=c1c(O)c(-c2ccc(O)c(O)c2)oc2cc(O)cc(O)c12` [Quercetin, 3,3′,4′,5,7-pentahydroxylflavone], the IC50 was 4350 nM against human IP6K3 (IP6 100 µM), […] in the data set with hIP6K2 and 1100 nM against human IP6K1 (IP6 100 µM). In the data set “in vitro”, this compound registered a Papp of 0.54 ×10⁻⁶ cm/s. For the same compound, in “in vitro”, the Permeability class entry is “Low”.

For `CNC(=C[N+](=O)[O-])NCCSCc1ccc(CN(C)C)o1` [Ranitidine, ranitidine], in “in vitro”, the Papp was < 0.18 ×10⁻⁶ cm/s and the Permeability class result is recorded as “Low”.
